Experimental data taken from patent US7981903B2, “2-[2-{phenylamino}-1H-pyrrolo[2,3-D]pyrimidin-4-yl)amino] benzamide derivatives as IGF-1R inhibitors for the treatment of cancer” (GlaxoSmithKline LLC, priority 2007, dated 2011).

Experiments:
ALK = ALK (Homo sapiens, UniProt Q9UM73); assay: ALK enzyme assay (HTRF); assay type: biochemical; conditions: 0.25 nM ALK, 15.0 μM ATP, values given as pIC50 category
Summary of the method: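 Isolated ALK phosphorylates a biotinylated tyrosine peptide, 120 min at 20° C; anti-phosphotyrosine Eu-cryptate/streptavidin-XL665 HTRF read after 60 min with EDTA-containing detection mix.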

Colo205 = assay: Inhibition of cell proliferation (CellTiter-Glo or InCell analyzer), Colo205; assay type: cell-based; conditions: Homo sapiens, COLO 205, 72 h / 3 days, values given as IC50 category
Summary of the method: In one

NCI-H929 = assay: Inhibition of cell proliferation (CellTiter-Glo or InCell analyzer), NCI-H929; assay type: cell-based; conditions: Homo sapiens, 72 h / 3 days, values given as IC50 category
Summary of the method: In one

[1] = molecular target: T1, NIH-3T3 cells overexpressing human IGF-1R (Homo sapiens, UniProt P08069); assay: IGF-1R cellular autophosphorylation (DELFIA); assay type: cell-based
T1 construct: expressed in transfected cells; host or cells: NIH-3T3 (mouse fibroblasts)
T1 sequence (P08069 31-1367): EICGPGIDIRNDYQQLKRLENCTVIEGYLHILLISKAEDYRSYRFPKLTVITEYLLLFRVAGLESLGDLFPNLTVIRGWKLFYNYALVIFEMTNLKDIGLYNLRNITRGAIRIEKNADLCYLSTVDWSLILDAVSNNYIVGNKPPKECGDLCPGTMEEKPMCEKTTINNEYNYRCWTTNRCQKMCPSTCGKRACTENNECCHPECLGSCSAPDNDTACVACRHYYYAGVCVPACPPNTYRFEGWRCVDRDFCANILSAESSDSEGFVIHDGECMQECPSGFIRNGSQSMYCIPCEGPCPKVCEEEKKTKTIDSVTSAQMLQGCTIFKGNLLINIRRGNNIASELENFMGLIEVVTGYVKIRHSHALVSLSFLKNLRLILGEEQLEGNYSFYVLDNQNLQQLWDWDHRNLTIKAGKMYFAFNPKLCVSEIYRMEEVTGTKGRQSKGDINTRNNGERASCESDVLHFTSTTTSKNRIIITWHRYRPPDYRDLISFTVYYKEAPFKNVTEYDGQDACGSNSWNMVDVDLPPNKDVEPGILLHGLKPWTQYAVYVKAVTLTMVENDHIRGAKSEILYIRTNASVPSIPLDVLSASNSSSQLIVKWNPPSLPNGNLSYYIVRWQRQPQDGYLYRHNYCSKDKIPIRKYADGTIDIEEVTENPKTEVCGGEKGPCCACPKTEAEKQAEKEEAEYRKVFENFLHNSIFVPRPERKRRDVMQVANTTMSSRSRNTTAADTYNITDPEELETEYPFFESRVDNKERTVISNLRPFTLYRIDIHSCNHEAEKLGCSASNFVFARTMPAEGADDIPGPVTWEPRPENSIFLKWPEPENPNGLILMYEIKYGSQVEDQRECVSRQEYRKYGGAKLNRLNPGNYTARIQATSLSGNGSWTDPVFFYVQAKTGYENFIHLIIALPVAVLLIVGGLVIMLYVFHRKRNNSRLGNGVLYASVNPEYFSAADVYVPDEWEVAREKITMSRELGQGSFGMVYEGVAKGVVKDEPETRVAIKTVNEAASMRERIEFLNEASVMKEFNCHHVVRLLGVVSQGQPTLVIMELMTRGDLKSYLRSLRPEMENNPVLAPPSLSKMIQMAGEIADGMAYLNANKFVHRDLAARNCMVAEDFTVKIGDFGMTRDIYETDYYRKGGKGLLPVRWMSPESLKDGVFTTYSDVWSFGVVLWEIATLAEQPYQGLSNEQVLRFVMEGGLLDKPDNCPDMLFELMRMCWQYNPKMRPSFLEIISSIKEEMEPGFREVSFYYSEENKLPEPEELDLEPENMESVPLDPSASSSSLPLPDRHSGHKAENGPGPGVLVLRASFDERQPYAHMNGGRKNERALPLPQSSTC
Summary of the method: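 Receptor autophosphorylation measured by DELFIA, capturing IGF-1R or IRβ and detecting with europium anti-pTyr, reported as percent of IGF-1- or insulin-stimulated signal. Compounds (30 uM to 1.5 nM) added 2 h before ligand, then 15 min stimulation (IGF-1 30 ng/ml or insulin 3 ug/ml).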

Chain of ALK (Q9UM73 19-1620): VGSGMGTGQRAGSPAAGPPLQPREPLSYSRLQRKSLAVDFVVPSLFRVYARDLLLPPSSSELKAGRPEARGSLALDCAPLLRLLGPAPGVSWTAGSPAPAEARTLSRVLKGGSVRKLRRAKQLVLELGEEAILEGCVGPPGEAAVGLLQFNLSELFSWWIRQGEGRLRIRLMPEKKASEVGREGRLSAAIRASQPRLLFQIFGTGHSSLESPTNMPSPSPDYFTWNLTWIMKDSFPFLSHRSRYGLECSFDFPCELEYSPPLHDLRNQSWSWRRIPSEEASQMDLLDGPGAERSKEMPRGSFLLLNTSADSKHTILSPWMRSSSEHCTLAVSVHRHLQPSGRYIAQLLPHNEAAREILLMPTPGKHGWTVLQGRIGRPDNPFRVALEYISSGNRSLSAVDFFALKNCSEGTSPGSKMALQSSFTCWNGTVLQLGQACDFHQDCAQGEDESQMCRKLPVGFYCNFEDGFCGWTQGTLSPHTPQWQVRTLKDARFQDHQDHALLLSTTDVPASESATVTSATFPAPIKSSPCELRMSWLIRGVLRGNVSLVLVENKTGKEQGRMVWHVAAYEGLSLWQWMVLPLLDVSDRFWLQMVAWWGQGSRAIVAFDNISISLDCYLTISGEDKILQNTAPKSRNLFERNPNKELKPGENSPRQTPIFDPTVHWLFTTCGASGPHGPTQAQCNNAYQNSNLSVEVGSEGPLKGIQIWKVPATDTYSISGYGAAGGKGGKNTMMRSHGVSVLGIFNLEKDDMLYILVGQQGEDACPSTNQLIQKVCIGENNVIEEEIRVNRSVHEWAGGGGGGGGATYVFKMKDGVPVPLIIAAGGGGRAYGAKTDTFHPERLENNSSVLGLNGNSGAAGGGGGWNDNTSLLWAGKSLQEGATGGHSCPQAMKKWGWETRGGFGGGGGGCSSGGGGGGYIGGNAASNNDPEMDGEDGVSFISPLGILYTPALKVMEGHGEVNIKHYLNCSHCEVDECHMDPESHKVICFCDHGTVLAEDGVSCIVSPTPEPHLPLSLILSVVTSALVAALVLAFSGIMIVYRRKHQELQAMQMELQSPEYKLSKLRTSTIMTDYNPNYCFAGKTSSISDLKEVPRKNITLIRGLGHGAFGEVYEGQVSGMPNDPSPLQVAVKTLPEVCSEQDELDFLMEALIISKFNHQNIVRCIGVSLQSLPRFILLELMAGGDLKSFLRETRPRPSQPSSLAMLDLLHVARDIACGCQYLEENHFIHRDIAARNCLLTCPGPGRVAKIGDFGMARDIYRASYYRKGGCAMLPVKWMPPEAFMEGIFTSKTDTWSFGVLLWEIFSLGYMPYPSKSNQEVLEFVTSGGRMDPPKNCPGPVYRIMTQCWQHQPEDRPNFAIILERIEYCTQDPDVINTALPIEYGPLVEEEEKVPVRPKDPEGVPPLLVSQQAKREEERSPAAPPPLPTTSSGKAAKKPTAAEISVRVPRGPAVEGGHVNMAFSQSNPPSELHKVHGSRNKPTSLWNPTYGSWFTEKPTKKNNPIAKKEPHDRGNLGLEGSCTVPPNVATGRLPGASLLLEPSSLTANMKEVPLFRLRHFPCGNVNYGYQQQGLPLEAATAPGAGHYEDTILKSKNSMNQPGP

Compound	IC50 (ALK)	IC50 (Colo205)	IC50 (NCI-H929)	IC50 [1]
CNC(=O)c1cc2ccccc2cc1Nc1nc(Nc2cc3c(cc2OC)CCN3C(=O)CN(C)C)nc2[nH]ccc12 [Example 125, 3-[(2-{[1-(N,N-dimethylglycyl)-5-(methyloxy)-2,3-dihydro-1H-indol-6-yl]amino}-1H-pyrrolo[2,3-d]pyrimidin-4-yl)amino]-N-methyl-2-naphthalenecarboxamide]	5.01 to 200 nM	250 to 1000 nM	< 250 nM	100 to 500 nM
CCN(C)CC(=O)N1CCCc2cc(OC)c(Nc3nc(Nc4cccc(F)c4C(=O)NC)c4cc[nH]c4n3)cc21 [Example 132, 2-[(2{-[1-(N-ethyl-N-methylglycyl)-6-(methyloxy)-1,2,3,4-tetrahydro-7-quinolinyl]amino}-1H-pyrrolo[2,3-d]pyrimidin-4-yl)amino]-6-fluoro-N-methylbenzamide]	5.01 to 200 nM	< 250 nM	< 250 nM	< 100 nM
COc1cc2c(cc1Nc1nc(Nc3cccc(F)c3C(N)=O)c3cc[nH]c3n1)N(C(C)=O)CC2 [Example 134, 2-[(2-{[1-acetyl-5-(methyloxy)-2,3-dihydro-1H-indol-6-yl]amino}-1H-pyrrolo[2,3-d]pyrimidin-4-yl)amino]-6-fluorobenzamide]	1.26 to 3.98 nM	250 to 1000 nM	< 250 nM	100 to 500 nM
CNC(=O)c1c(F)cccc1Nc1nc(Nc2cc3c(cc2OC)CCN3C(C)=O)nc2[nH]ccc12 [Example 135, 2-[(2-{[1-acetyl-5-(methyloxy)-2,3-dihydro-1H-indol-6-yl]amino}-1H-pyrrolo[2,3-d]pyrimidin-4-yl)amino]-6-fluoro-N-methylbenzamide]	1.26 to 3.98 nM	> 1000 nM	250 to 1000 nM	> 500 nM
CCN(CC)CC(=O)N1CCc2cc(OC)c(Nc3nc(Nc4cccc(F)c4C(=O)NC)c4cc[nH]c4n3)cc21 [Example 137, 2-[(2-{[1-(N,N-diethylglycyl)-5-(methyloxy)-2,3-dihydro-1H-indol-6-yl]amino}-1H-pyrrolo[2,3-d]pyrimidin-4-yl)amino]-6-fluoro-N-methylbenzamide]	5.01 to 200 nM	250 to 1000 nM	< 250 nM	100 to 500 nM
COc1cc2c(cc1Nc1nc(Nc3cccc(F)c3C(N)=O)c3cc[nH]c3n1)NCC2 [Example 140, 2-fluoro-6-[(2-{[5-(methyloxy)-2,3-dihydro-1H-indol-6-yl]amino}-1H-pyrrolo[2,3-d]pyrimidin-4-yl)amino]benzamide]	5.01 to 200 nM	250 to 1000 nM	> 1000 nM	> 500 nM
COc1cc2c(cc1Nc1nc(Nc3cccc(F)c3C(N)=O)c3cc[nH]c3n1)N(C(=O)CN1CCC1)CC2 [Example 143, 2-[(2-{[1-(1-azetidinylacetyl)-5-(methyloxy)-2,3-dihydro-1H-indol-6-yl]amino}-1H-pyrrolo[2,3-d]pyrimidin-4-yl)amino]-6-fluorobenzamide]	1.26 to 3.98 nM	250 to 1000 nM	< 250 nM	100 to 500 nM
COc1cc2c(cc1Nc1nc(Nc3cccc(F)c3C(N)=O)c3cc[nH]c3n1)N(C(=O)CN(C)OC)CC2 [Example 144, 2-fluoro-6-[(2-{[1-[N-methyl-N-(methyloxy)glycyl]-5-(methyloxy)-2,3-dihydro-1H-indol-6-yl]amino}-1H-pyrrolo[2,3-d]pyrimidin-4-yl)amino]benzamide]	5.01 to 200 nM	> 1000 nM	250 to 1000 nM	> 500 nM
COc1cc2c(cc1Nc1nc(Nc3cccc(F)c3C(N)=O)c3cc[nH]c3n1)N(C(=O)Cn1ccnc1)CC2 [Example 145, 2-fluoro-6-[(2-{[1-(1H-imidazol-1-ylacetyl)-5-(methyloxy)-2,3-dihydro-1H-indol-6-yl]amino}-1H-pyrrolo[2,3-d]pyrimidin-4-yl)amino]benzamide]	5.01 to 200 nM	> 1000 nM	> 1000 nM	> 500 nM
COc1cc2c(cc1Nc1nc(Nc3cccc(F)c3C(N)=O)c3cc[nH]c3n1)N(C(=O)N(C)C)CC2 [Example 146, 6-[(4-{[2-(aminocarbonyl)-3-fluorophenyl]amino}-1H-pyrrolo[2,3-d]pyrimidin-2-yl)amino]-N,N-dimethyl-5-(methyloxy)-2,3-dihydro-1H-indole-1-carboxamide]	5.01 to 200 nM	> 1000 nM	250 to 1000 nM	> 500 nM
COc1cc2c(cc1Nc1nc(Nc3cccc(F)c3C(N)=O)c3cc[nH]c3n1)N(C(=O)[C@@H]1CCCN1C)CC2 [Example 147, 2-fluoro-6-[(2-{[5-(methyloxy)-1-(1-methyl-L-prolyl)-2,3-dihydro-1H-indol-6-yl]amino}-1H-pyrrolo[2,3-d]pyrimidin-4-yl)amino]benzamide]	5.01 to 200 nM	250 to 1000 nM	< 250 nM	100 to 500 nM
COCC(=O)N1CCc2cc(OC)c(Nc3nc(Nc4cccc(F)c4C(N)=O)c4cc[nH]c4n3)cc21 [Example 149, 2-fluoro-6-{[2-({5-(methyloxy)-1-[(methyloxy)acetyl]-2,3-dihydro-1H-indol-6-yl}amino)-1H-pyrrolo[2,3-d]pyrimidin-4-yl]amino}benzamide]	5.01 to 200 nM	> 1000 nM	250 to 1000 nM	100 to 500 nM
CNC(=O)c1c(F)cccc1Nc1nc(Nc2cc3c(cc2OC)CCN3C(=O)COC)nc2[nH]ccc12 [Example 150, 2-fluoro-N-methyl-6-{[2-({5-(methyloxy)-1-[(methyloxy)acetyl]-2,3-dihydro-1H-indol-6-yl}amino)-1H-pyrrolo[2,3-d]pyrimidin-4-yl]amino}benzamide]	5.01 to 200 nM	> 1000 nM	250 to 1000 nM	> 500 nM
CCNC(=O)c1c(F)cc(F)cc1Nc1nc(Nc2cc3c(cc2OC)CCN3C(=O)CN(C)C)nc2[nH]ccc12 [Example 151, 2-[(2-{[1-(N,N-dimethylglycyl)-5-(methyloxy)-2,3-dihydro-1H-indol-6-yl]amino}-1H-pyrrolo[2,3-d]pyrimidin-4-yl)amino]-N-ethyl-4,6-difluorobenzamide]	0.251 to 1 nM	250 to 1000 nM	250 to 1000 nM	100 to 500 nM
CCCNC(=O)c1c(F)cc(F)cc1Nc1nc(Nc2cc3c(cc2OC)CCN3C(=O)CN(C)C)nc2[nH]ccc12 [Example 152, 2-[(2-{[1-(N,N-dimethylglycyl)-5-(methyloxy)-2,3-dihydro-1H-indol-6-yl]amino}-1H-pyrrolo[2,3-d]pyrimidin-4-yl)amino]-4,6-difluoro-N-propylbenzamide]	0.251 to 1 nM	250 to 1000 nM	250 to 1000 nM	100 to 500 nM
COc1cc2c(cc1Nc1nc(Nc3ccc(F)c(F)c3C(=O)NC(C)C)c3cc[nH]c3n1)N(C(=O)CN(C)C)CC2 [Example 161, 6-[(2-{[1-(N,N-dimethylglycyl)-5-(methyloxy)-2,3-dihydro-1H-indol-6-yl]amino}-1H-pyrrolo[2,3-d]pyrimidin-4-yl)amino]-2,3-difluoro-N-(1-methylethyl)benzamide]	1.26 to 3.98 nM	> 1000 nM	250 to 1000 nM	100 to 500 nM
CCN(C)CC(=O)N1CCc2cc(OC)c(Nc3nc(Nc4cccc(F)c4C(=O)NC)c4cc[nH]c4n3)cc21 [Example 165, 2-[(2-{[1-(N-ethyl-N-methylglycyl)-5-(methyloxy)-2,3-dihydro-1H-indol-6-yl]amino}-1H-pyrrolo[2,3-d]pyrimidin-4-yl)amino]-6-fluoro-N-methylbenzamide]	1.26 to 3.98 nM	> 1000 nM	250 to 1000 nM	100 to 500 nM
CCCN(C)CC(=O)N1CCc2cc(OC)c(Nc3nc(Nc4cccc(F)c4C(N)=O)c4cc[nH]c4n3)cc21 [Example 168, 2-fluoro-6-[(2-{[5-(methyloxy)-1-(N-methyl-N-propylglycyl)-2,3-dihydro-1H-indol-6-yl]amino}-1H-pyrrolo[2,3-d]pyrimidin-4-yl)amino]benzamide]	1.26 to 3.98 nM	< 250 nM	< 250 nM	< 100 nM
COc1cc2c(cc1Nc1nc(Nc3cc(Cl)cc(F)c3C(N)=O)c3cc[nH]c3n1)N(C(=O)CN1CCCC1)CC2 [Example 175, 4-chloro-2-fluoro-6-[(2-{[5-(methyloxy)-1-(1-pyrrolidinylacetyl)-2,3-dihydro-1H-indol-6-yl]amino}-1H-pyrrolo[2,3-d]pyrimidin-4-yl)amino]benzamide]	1.26 to 3.98 nM	250 to 1000 nM	< 250 nM	< 100 nM
COc1cc2c(cc1Nc1nc(Nc3cc(F)cc(F)c3C(N)=O)c3cc[nH]c3n1)N(C(=O)CN(C)C)CCC2 [Example 178, 2-[(2-{[1-(N,N-dimethylglycyl)-6-(methyloxy)-1,2,3,4-tetrahydro-7-quinolinyl]amino}-1H-pyrrolo[2,3-d]pyrimidin-4-yl)amino]-4,6-difluorobenzamide]	0.251 to 1 nM	< 250 nM	< 250 nM	< 100 nM
CNC(=O)c1c(F)cc(F)cc1Nc1nc(Nc2cc3c(cc2OC)CCCN3C(=O)CN(C)C)nc2[nH]ccc12 [Example 179, 2-[(2-{[1-(N,N-dimethylglycyl)-6-(methyloxy)-1,2,3,4-tetrahydro-7-quinolinyl]amino}-1H-pyrrolo[2,3-d]pyrimidin-4-yl)amino]-4,6-difluoro-N-methylbenzamide]	0.251 to 1 nM	< 250 nM	< 250 nM	< 100 nM
